Test results reported in ChEMBL document CHEMBL1649413, “Structure-activity relationship of 4(5)-aryl-2-amino-1H-imidazoles, N1-substituted 2-aminoimidazoles and imidazo[1,2-a]pyrimidinium salts as inhibitors of biofilm formation by Salmonella typhimurium and Pseudomonas aeruginosa” (J Med Chem, 2011).
Activity calls are given as the source filed them. The calls are words filed in the database; no cut-off is given here.

Key:
[1] = test system: Salmonella typhimurium; test: Antibiofilm activity in Salmonella Typhimurium ATCC 14028 assessed as inhibition of biofilm formation at 25 degC after 24 hrs; format: functional, organism-based, Salmonella enterica subsp. enterica serovar Typhimurium; conditions: Salmonella enterica, ATCC 14028, 24 h
[2] = test system: Pseudomonas aeruginosa; test: Antibiofilm activity in Pseudomonas aeruginosa assessed as inhibition of biofilm formation at 25 degC after 24 hrs; format: functional, organism-based
[3] = test system: Pseudomonas aeruginosa; test: Antimicrobial activity against Pseudomonas aeruginosa assessed as inhibition of planktonic growth at 20 uM at 25 degC after 24 hrs; format: functional, organism-based
[4] = test system: Pseudomonas aeruginosa; test: Antimicrobial activity against Pseudomonas aeruginosa assessed as inhibition of planktonic growth at 40 uM at 25 degC after 24 hrs; format: functional, organism-based
[5] = test system: Pseudomonas aeruginosa; test: Antimicrobial activity against Pseudomonas aeruginosa assessed as inhibition of planktonic growth at 5 uM at 25 degC after 24 hrs; format: functional, organism-based
[6] = test system: Pseudomonas aeruginosa; test: Antimicrobial activity against Pseudomonas aeruginosa assessed as inhibition of planktonic growth at 10 uM at 25 degC after 24 hrs; format: functional, organism-based
[7] = test system: Salmonella typhimurium; test: Antimicrobial activity against Salmonella Typhimurium ATCC 14028 assessed as inhibition of planktonic growth at 20 uM at 25 degC after 24 hrs; format: functional, organism-based; conditions: Salmonella enterica subsp. enterica serovar Typhimurium
[8] = test system: Salmonella typhimurium; test: Antimicrobial activity against Salmonella Typhimurium ATCC 14028 assessed as inhibition of planktonic growth at 10 uM at 25 degC after 24 hrs; format: functional, organism-based; conditions: Salmonella enterica subsp. enterica serovar Typhimurium
[9] = test system: Salmonella typhimurium; test: Antimicrobial activity against Salmonella Typhimurium ATCC 14028 assessed as inhibition of planktonic growth at 4 uM at 25 degC after 24 hrs; format: functional, organism-based; conditions: Salmonella enterica subsp. enterica serovar Typhimurium
[10] = test system: Pseudomonas aeruginosa; test: Antimicrobial activity against Pseudomonas aeruginosa assessed as inhibition of planktonic growth at 80 uM at 25 degC after 24 hrs; format: functional, organism-based
[11] = test system: Salmonella typhimurium; test: Antimicrobial activity against Salmonella Typhimurium ATCC 14028 assessed as inhibition of planktonic growth at 80 uM at 25 degC after 24 hrs; format: functional, organism-based; conditions: Salmonella enterica subsp. enterica serovar Typhimurium
[12] = test system: Salmonella typhimurium; test: Antimicrobial activity against Salmonella Typhimurium ATCC 14028 assessed as inhibition of planktonic growth at 40 uM at 25 degC after 24 hrs; format: functional, organism-based; conditions: Salmonella enterica subsp. enterica serovar Typhimurium

Structure (SMILES)	IC50 [1] [µM]	IC50 [2] [µM]	inhibition [3]	inhibition [4]	inhibition [5]	inhibition [6]	inhibition [7]	inhibition [8]	inhibition [9]	inhibition [10]	inhibition [11]	inhibition [12]
Nc1ncc(-c2ccc(Cl)cc2)n1C1CCCCC1	33.2	11.2	inactive	inactive	inactive	–	–	–	–	–	–	–
CCCCCCCCCCCCn1c(-c2ccc(-c3ccccc3)cc2)cnc1N	167	> 400	–	inactive	inactive	–	–	–	–	–	–	–
Nc1ncc(-c2ccc(-c3ccccc3)cc2)n1C1CCCCCCC1	22.9	3.2	inactive	inactive	inactive	inactive	Active	–	–	–	–	–
CCCCCCCCn1c(-c2ccc(SC)cc2)cnc1N	6.7	2.8	Active	–	inactive	Active	–	Active	inactive	–	–	–
Nc1ncc(-c2ccccc2)n1C1CCC1	116	19.9	inactive	inactive	–	–	–	–	–	inactive	–	–
CCCCCCCC[n+]1c(-c2ccc(-c3ccc([N+](=O)[O-])cc3)cc2)cn2cccnc21.[O-][Cl+3]([O-])([O-])[O-]	1.5	1	Active	Active	Active	Active	–	Active	Active	–	–	–
Nc1ncc(-c2ccc(-c3ccccc3)cc2)n1C1CCCC1	7.5	353	–	–	–	–	Active	inactive	inactive	–	Active	Active
Cc1ccc(-c2[nH]c(N)nc2-c2ccc(Cl)cc2)cc1	12.9	–	–	–	–	–	Active	Active	inactive	–	Active	Active
Nc1nc(-c2ccc(F)cc2)c(-c2ccc(F)cc2)[nH]1	18.2	–	–	–	–	–	Active	inactive	inactive	–	Active	Active
CCCCCCCCn1c(-c2ccc(F)cc2)cnc1N	10.8	4.9	Active	–	inactive	Active	Active	inactive	–	–	–	–
CCCCCCCCCn1c(-c2ccccc2)cnc1N	6	8.4	Active	–	inactive	inactive	Active	Active	inactive	–	–	–
Nc1nc(-c2ccc(Cl)cc2)c(-c2ccc(C(F)(F)F)cc2)[nH]1	10.8	–	–	–	–	–	Active	Active	inactive	–	Active	Active
CCCCCCCn1c(-c2ccccc2)cnc1N	12.2	6.8	inactive	inactive	inactive	–	–	–	–	–	–	–
CCCCCCCCn1c(-c2ccc([N+](=O)[O-])cc2)cnc1N	35.4	–	–	–	–	–	–	–	–	–	Active	Active
CCCCCCCn1c(-c2ccc(Cl)cc2)cnc1N	9.5	2.6	–	–	inactive	Active	–	Active	inactive	–	–	–
Nc1ncc(-c2ccccc2)n1C1CCCCCCCCCCC1	14.6	> 800	–	–	–	–	–	inactive	–	–	inactive	inactive
Nc1nc(-c2ccccc2)c(-c2ccccc2)n1C1CCCCC1	23.9	5	inactive	inactive	–	–	inactive	inactive	–	–	inactive	inactive
CC(C)n1c(-c2ccccc2)cnc1N	176	4.5	–	–	inactive	inactive	–	–	–	–	–	–
CCCCCCCCCn1c(-c2ccc(-c3ccccc3)cc2)cnc1N	16.4	> 400	–	–	–	–	inactive	–	–	–	Active	Active
CCCCCCn1c(-c2ccc(Cl)cc2)cnc1N	4.9	5.4	–	–	inactive	inactive	–	Active	Active	–	–	–
CCCCCCCC[n+]1c(-c2cccc3ccccc23)cn2cccnc21.[O-][Cl+3]([O-])([O-])[O-]	6	6.8	Active	Active	inactive	Active	–	Active	inactive	–	–	–
CCCCn1c(-c2ccccc2)cnc1N	51.9	2.1	–	–	inactive	inactive	–	–	–	–	–	–
CCCCCCCCCCCCCn1c(-c2ccc(-c3ccccc3)cc2)cnc1N	> 800	> 400	–	inactive	inactive	–	–	–	–	–	–	–
CCn1c(-c2ccc(-c3ccccc3)cc2)cnc1N	14	95.1	–	–	–	–	inactive	inactive	inactive	–	Active	Active
Nc1ncc(-c2ccc(Cl)cc2)n1C1CCCCCC1	15.7	4	inactive	–	inactive	inactive	–	–	–	–	–	–
CCCCCn1c(-c2ccc(Cl)cc2)cnc1N	8	6	inactive	–	inactive	inactive	Active	inactive	inactive	–	–	Active
CCn1c(-c2ccc(Cl)cc2)cnc1N	53.2	11.3	inactive	–	–	inactive	inactive	inactive	inactive	–	Active	Active
CCCCCCCCn1c(-c2ccc(Cl)cc2)cnc1N	5.9	4	Active	–	inactive	Active	Active	Active	Active	–	–	–
